Data published in ChEMBL document CHEMBL1128752, “1,2,3-Trisubstituted cyclohexyl substance P antagonists: significance of the ring nitrogen in piperidine-based NK-1 receptor antagonists” (Bioorg Med Chem Lett, 1995).

Legend:
[1] = target: T1, Substance-P receptor (Homo sapiens, UniProt P25103); assay: Binding affinity towards Neurokinin -1(NK-1) receptor of human by using [125I]- Tyr8 substance P as a radioligand in CHO cells; format: cell-based
[2] = target: T1, Substance-P receptor; settings: CHO
Description: Dissociation constant towards Neurokinin -1(NK-1) receptor of human by using [125I]- Tyr8 substance P as a radioligand in CHO cells

T1 sequence (P25103 whole entry): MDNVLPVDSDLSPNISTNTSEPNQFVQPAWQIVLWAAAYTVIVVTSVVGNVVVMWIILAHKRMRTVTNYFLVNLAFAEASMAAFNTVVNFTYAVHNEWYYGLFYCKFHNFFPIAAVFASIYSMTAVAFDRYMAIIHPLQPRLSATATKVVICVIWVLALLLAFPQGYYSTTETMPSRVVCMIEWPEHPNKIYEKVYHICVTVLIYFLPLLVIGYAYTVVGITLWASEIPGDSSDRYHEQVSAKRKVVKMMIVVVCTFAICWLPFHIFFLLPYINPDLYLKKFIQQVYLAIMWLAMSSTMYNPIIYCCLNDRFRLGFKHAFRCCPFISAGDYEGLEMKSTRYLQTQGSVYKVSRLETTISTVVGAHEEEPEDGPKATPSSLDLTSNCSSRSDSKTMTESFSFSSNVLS

Row | SMILES | IC50 [1] [nM] | pKa [2]
1 | FC(F)(F)c1cc(CO[C@H]2CCCC[C@H]2c2ccccc2)cc(C(F)(F)F)c1 | 2630 | 
2 | FC(F)(F)c1cc(CO[C@H]2CCCN[C@H]2c2ccccc2)cc(C(F)(F)F)c1 |  | 8.3
3 | O=C(NCc1cccnc1)NC[C@H]1CCC[C@H](OCc2cc(C(F)(F)F)cc(C(F)(F)F)c2)[C@@H]1c1ccccc1 | 34 | 
4 | CN1CCC[C@H](OCc2cc(C(F)(F)F)cc(C(F)(F)F)c2)[C@@H]1c1ccccc1 | 14 | 
5 | FC(F)(F)c1cc(CO[C@H]2CCCO[C@H]2c2ccccc2)cc(C(F)(F)F)c1 | 881 | 
6 | O=C(C[C@H]1CCC[C@H](OCc2cc(C(F)(F)F)cc(C(F)(F)F)c2)[C@@H]1c1ccccc1)NCc1ccncc1 | 7 | 
7 | OC(COCc1cc(C(F)(F)F)cc(C(F)(F)F)c1)C(c1ccccc1)c1ccccc1 (configuration not stated) | 17 | 
8 | NC(=O)C[C@@H]1CCC[C@@H](OCc2cc(C(F)(F)F)cc(C(F)(F)F)c2)[C@H]1c1ccccc1 | ≥ 157 | 

Now from value to molecule:

Row | IC50 [1] [nM] | pKa [2] | SMILES
9 | 3.7 |  | O=C(C[C@H]1CCC[C@H](OCc2cc(C(F)(F)F)cc(C(F)(F)F)c2)[C@@H]1c1ccccc1)NCc1cccnc1
10 | 6.7 |  | NC(=O)NC[C@H]1CCC[C@H](OCc2cc(C(F)(F)F)cc(C(F)(F)F)c2)[C@@H]1c1ccccc1
11 | 1.5 |  | NC(=O)C[C@H]1CCC[C@H](OCc2cc(C(F)(F)F)cc(C(F)(F)F)c2)[C@@H]1c1ccccc1 (stereo in doubt; 22)
12 | 3 |  | NC(=O)C[C@H]1CCC[C@H](OCc2cc(C(F)(F)F)cc(C(F)(F)F)c2)[C@@H]1c1ccccc1 (stereo in doubt; 19a)
